Data taken from PubChem BioAssay (NCI).
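In this assay, cells in 96-well plates receive the compound at five concentrations for 48 hours. Endpoints are linearly interpolated between the surrounding concentrations. Abbreviation: GI50, concentration required for 50% inhibition of growth. Definition used: TGI = concentration required for complete inhibition of growth.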

How the values were obtained:
Assay in all cases: NCI tumour cell line growth inhibition, 48 h
HCT-116 colon = tested on: HCT-116 colon
A498 renal = tested on: A498 renal
NCI-H522 lung = tested on: NCI-H522 lung
BT-549 breast = tested on: BT-549 breast
MDA-MB-231 breast = tested on: MDA-MB-231 breast
786-0 renal = tested on: 786-0 renal
RXF 393 renal = tested on: RXF 393 renal
NCI/ADR-RES ovarian = tested on: NCI/ADR-RES ovarian
CAKI-1 renal = tested on: CAKI-1 renal
SK-OV-3 ovarian = tested on: SK-OV-3 ovarian
U251 CNS = tested on: U251 CNS
MALME-3M melanoma = tested on: MALME-3M melanoma
SF-539 CNS = tested on: SF-539 CNS
COLO 205 colon = tested on: COLO 205 colon
SF-295 CNS = tested on: SF-295 CNS
CCRF-CEM leukemia = tested on: CCRF-CEM leukemia
RPMI-8226 leukemia = tested on: RPMI-8226 leukemia
SK-MEL-5 melanoma = tested on: SK-MEL-5 melanoma
M14 melanoma = tested on: M14 melanoma
HS 578T breast = tested on: HS 578T breast
ACHN renal = tested on: ACHN renal
OVCAR-3 ovarian = tested on: OVCAR-3 ovarian
MCF7 breast = tested on: MCF7 breast
HT29 colon = tested on: HT29 colon
HCC-2998 colon = tested on: HCC-2998 colon
SK-MEL-28 melanoma = tested on: SK-MEL-28 melanoma
OVCAR-8 ovarian = tested on: OVCAR-8 ovarian
MOLT-4 leukemia = tested on: MOLT-4 leukemia
TK-10 renal = tested on: TK-10 renal
HCT-15 colon = tested on: HCT-15 colon
NCI-H226 lung = tested on: NCI-H226 lung
A549 NSCLC = tested on: A549 NSCLC
EKVX NSCLC = tested on: EKVX NSCLC
UO-31 renal = tested on: UO-31 renal
PC-3 prostate = tested on: PC-3 prostate
SNB-19 CNS = tested on: SNB-19 CNS
OVCAR-5 ovarian = tested on: OVCAR-5 ovarian
NCI-H23 lung = tested on: NCI-H23 lung
OVCAR-4 ovarian = tested on: OVCAR-4 ovarian
LOX IMVI melanoma = tested on: LOX IMVI melanoma
UACC-257 melanoma = tested on: UACC-257 melanoma
UACC-62 melanoma = tested on: UACC-62 melanoma
SW-620 colon = tested on: SW-620 colon
SN12C renal = tested on: SN12C renal
MDA-MB-435 = tested on: MDA-MB-435
SNB-75 CNS = tested on: SNB-75 CNS
SR leukemia = tested on: SR leukemia
DU-145 prostate = tested on: DU-145 prostate
NCI-H460 lung = tested on: NCI-H460 lung
HOP-62 NSCLC = tested on: HOP-62 NSCLC
T-47D breast = tested on: T-47D breast
KM12 colon = tested on: KM12 colon
SF-268 CNS = tested on: SF-268 CNS
IGROV1 ovarian = tested on: IGROV1 ovarian
SK-MEL-2 melanoma = tested on: SK-MEL-2 melanoma

## COc1ccc(N(/C=C/C(=O)C(F)(F)F)CC(=O)c2ccc(F)cc2)cc1
HCT-116 colon
  GI50: 14.7 µM
  TGI: 27.9 µM
A498 renal
  GI50: 14.2 µM
  TGI: 37.8 µM
NCI-H522 lung
  GI50: 18.7 µM
  TGI: 36.9 µM
BT-549 breast
  GI50: 30.4 µM
  TGI: > 100 µM
MDA-MB-231 breast
  GI50: 16.1 µM
  TGI: 48.4 µM
786-0 renal
  GI50: 21.1 µM
  TGI: 52.4 µM
RXF 393 renal
  GI50: 28.8 µM
  TGI: 77.4 µM
NCI/ADR-RES ovarian
  GI50: 31.2 µM
  TGI: 87.4 µM
CAKI-1 renal
  GI50: 21.7 µM
  TGI: 72.1 µM
SK-OV-3 ovarian
  GI50: 42.9 µM
  TGI: > 100 µM
U251 CNS
  GI50: 13.1 µM
  TGI: 28.3 µM
MALME-3M melanoma
  GI50: 16.5 µM
  TGI: 41.4 µM
SF-539 CNS
  GI50: 21.4 µM
  TGI: 52 µM
COLO 205 colon
  GI50: 26.9 µM
  TGI: 84.5 µM
SF-295 CNS
  GI50: 27.4 µM
  TGI: 91 µM
CCRF-CEM leukemia
  GI50: 19.7 µM
  TGI: 95.1 µM
RPMI-8226 leukemia
  GI50: 15.2 µM
  TGI: 47.3 µM
SK-MEL-5 melanoma
  GI50: 14.8 µM
  TGI: 32 µM
M14 melanoma
  GI50: 20.6 µM
  TGI: 56.7 µM
HS 578T breast
  GI50: 27.8 µM
  TGI: 89.1 µM
ACHN renal
  GI50: 16.3 µM
  TGI: 41.2 µM
OVCAR-3 ovarian
  GI50: 21.2 µM
  TGI: 48.6 µM
MCF7 breast
  GI50: 43.1 µM
  TGI: > 100 µM
HT29 colon
  GI50: 46.2 µM
  TGI: > 100 µM
HCC-2998 colon
  GI50: 21.4 µM
  TGI: 38.9 µM
SK-MEL-28 melanoma
  GI50: 41.1 µM
  TGI: > 100 µM
OVCAR-8 ovarian
  GI50: 32.1 µM
  TGI: > 100 µM
MOLT-4 leukemia
  GI50: 16.1 µM
  TGI: 43.6 µM
TK-10 renal
  GI50: 42.1 µM
  TGI: 96.4 µM
HCT-15 colon
  GI50: 16 µM
  TGI: 38.7 µM
NCI-H226 lung
  GI50: 12.1 µM
  TGI: 33.3 µM
A549 NSCLC
  GI50: 32 µM
  TGI: > 100 µM
EKVX NSCLC
  GI50: 25.4 µM
  TGI: > 100 µM
UO-31 renal
  GI50: 36.3 µM
  TGI: > 100 µM
PC-3 prostate
  GI50: 23.1 µM
  TGI: 85.7 µM
SNB-19 CNS
  GI50: 36.6 µM
  TGI: > 100 µM
OVCAR-5 ovarian
  GI50: 34.1 µM
  TGI: 93.3 µM
NCI-H23 lung
  GI50: 30.1 µM
  TGI: 84.9 µM
OVCAR-4 ovarian
  GI50: 45.3 µM
  TGI: > 100 µM
LOX IMVI melanoma
  GI50: 16.4 µM
  TGI: 39.1 µM
UACC-257 melanoma
  GI50: 23.7 µM
  TGI: 64.8 µM
UACC-62 melanoma
  GI50: 12 µM
  TGI: 38.3 µM
SW-620 colon
  GI50: 35 µM
  TGI: > 100 µM
SN12C renal
  GI50: 14.7 µM
  TGI: 33.8 µM
MDA-MB-435
  GI50: 19.9 µM
  TGI: 52.2 µM
SNB-75 CNS
  GI50: > 100 µM
  TGI: > 100 µM
SR leukemia
  GI50: 19.1 µM
  TGI: 44.3 µM
DU-145 prostate
  GI50: 36.2 µM
  TGI: > 100 µM
NCI-H460 lung
  GI50: 23.5 µM
  TGI: 50 µM
HOP-62 NSCLC
  GI50: 20 µM
  TGI: 44.9 µM
T-47D breast
  GI50: 32.1 µM
  TGI: > 100 µM
KM12 colon
  GI50: 21.6 µM
  TGI: 56 µM
SF-268 CNS
  GI50: 20.3 µM
  TGI: 45.2 µM
IGROV1 ovarian
  GI50: 13 µM
  TGI: 30.7 µM
SK-MEL-2 melanoma
  GI50: 31.6 µM
  TGI: 67.2 µM
